Key:
AVEFA = experiment: Post-emergence action at 320 g/ha against AVEFA; assay type: in vivo; conditions: visual rating about 3 weeks after treatment vs untreated controls; for pest or weed control at 320 g/ha: Avena fatua, 504 h
Procedure, shortened: (§1)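 Herbicidal effect is scored by eye about 3 weeks after a foliar spray and expressed as percent activity, with untreated plants as 0% and dead plants as 100%. Treatment is applied at the one-leaf stage of greenhouse-grown, soil-sown plants, at a water rate of 600 l/ha containing 0.5% additive.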

STEME [1] = experiment: Post-emergence action against STEME, 1.28 kg/ha; assay type: in vivo, Stellaria media; conditions: dosage 1280 g/ha, visual rating about 3 weeks after treatment vs untreated controls (100% = plants died)
Procedure, shortened: (§2)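 Weeds grown in sandy loam in a greenhouse were sprayed at the one-leaf stage, 2–3 weeks after sowing, with WP or EC formulations in water containing 0.5% additive at 600 L/ha. About 3 weeks later, damage was scored visually versus untreated controls (0% = like control, 100% = dead).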

ECHGC = experiment: Pre-emergence action at 320 g/ha against ECHGC; assay type: in vivo, Echinochloa crus-galli; conditions: visual scoring after about 3 weeks vs untreated controls
Procedure, shortened: (§3)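 Percent herbicidal activity was assessed by eye roughly three weeks post-application, comparing with untreated plants. Treatment consisted of applying formulated compound in water plus 0.5% additive to covering soil at 600 l/ha before emergence.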

ECHCG = experiment: Post-emergence action at 320 g/ha against ECHCG; assay type: in vivo, Echinochloa crus-galli; conditions: dosage 320 g/ha, visual rating about 3 weeks after treatment vs untreated controls (100% = plants died)
Procedure, shortened: as §1

POLCO = experiment: Post-emergence action at 320 g/ha against POLCO; assay type: in vivo, Fallopia convolvulus (Polygonum convolvulus); conditions: visual rating about 3 weeks after treatment vs untreated controls; for pest or weed control at 320 g/ha: Fallopia convolvulus, 504 h
Procedure, shortened: as §1

HORMU = experiment: Post-emergence action at 320 g/ha against HORMU; assay type: in vivo, Hordeum murinum; conditions: visual rating about 3 weeks after treatment vs untreated controls
Source text: Accordingly, the compounds of the invention have good herbicidal action against a broad spectrum of weed grasses and broad-leaved weeds and are therefore suitable for controlling unwanted vegetation by the post-emergence method. • b) Seeds of monocotyledonous and dicotyledonous weeds and crop plants are placed in sandy loam in plastic or organic planting pots, covered with soil and cultivated in a greenhouse under controlled growth conditions. 2 to 3 weeks after sowing, the test plants are treated at the one-leaf stage. The compounds of the invention, formulated in the form of wettable powders (WP) or as emulsion concentrates (EC), are then sprayed onto the green parts of the plants as aqueous suspension or emulsion with addition of 0.5% additive at a water application rate of 600 l/ha (converted). After the test plants have been kept in the greenhouse under optimum growth conditions for about 3 weeks, the activity of the preparations is rated visually in comparison to untreated controls. For example, 100% activity=the plants have died, 0% activity=like control plants. Tables 39 to 49 below show the effects of selected compounds of the general formula (I) according to Tables 1 and 2 on various harmful plants and at an application rate corresponding to 320 g/ha, which were obtained by the experimental procedure mentioned above.

MATIN = experiment: Pre-emergence action at 320 g/ha against MATIN; assay type: in vivo, Tripleurospermum inodorum (Matricaria inodora); conditions: visual scoring after about 3 weeks vs untreated controls; for pest or weed control at 320 g/ha: Tripleurospermum inodorum, 504 h
Procedure, shortened: as §3

STEME [2] = experiment: Pre-emergence action at 320 g/ha against STEME; assay type: in vivo, Stellaria media; conditions: greenhouse, scored visually after about 3 weeks vs untreated controls, 100% = plants have died, 0% = like control plants
Source text: b) Seeds of monocotyledonous and dicotyledonous weed plants and crop plants are placed in plastic or organic planting pots and covered with soil. The compounds of the invention, formulated in the form of wettable powders (WP) or as emulsion concentrates (EC), are then applied onto the surface of the covering soil as aqueous suspension or emulsion with addition of 0.5% additive at a water application rate of 600 l/ha (converted). After the treatment, the pots are placed in a greenhouse and kept under good growth conditions for the trial plants. After about 3 weeks, the effect of the preparations is scored visually in comparison with untreated controls as percentages. For example, 100% activity=the plants have died, 0% activity=like control plants. Tables 13 to 26 below show the effects of selected compounds of the general formula (I) on various harmful plants and at an application rate corresponding to 320 g/ha, which were obtained by the experimental procedure mentioned above.

DIGSA = experiment: Post-emergence action at 320 g/ha against DIGSA; assay type: in vivo, Digitaria sanguinalis; conditions: dosage 320 g/ha, visual rating about 3 weeks after treatment vs untreated controls (100% = plants died); for pest or weed control at 320 g/ha: Digitaria sanguinalis, 504 h
Procedure, shortened: as §1

LOLRI = experiment: Pre-emergence action at 320 g/ha against LOLRI; assay type: in vivo, Lolium rigidum; conditions: visual scoring after about 3 weeks vs untreated controls; for pest or weed control at 320 g/ha: Lolium rigidum, 504 h
Procedure, shortened: as §3

VERPE [3] = experiment: Post-emergence action against VERPE, 1.28 kg/ha; assay type: in vivo, Veronica persica; conditions: dosage 1280 g/ha, visual rating about 3 weeks after treatment vs untreated controls (100% = plants died); for pest or weed control at 1280 g/ha: Veronica persica, 504 h
Procedure, shortened: as §2

VERPE [4] = experiment: Pre-emergence action against VERPE, 1280 g/ha; assay type: in vivo, Veronica persica; conditions: scored visually after about 3 weeks vs untreated controls (100% = plants have died); for pest or weed control at 1280 g/ha: Veronica persica, 504 h
Procedure, shortened: (§4)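 Compound applied as WP or EC in aqueous spray (0.5% additive, 600 L/ha) to the surface of sandy loam covering freshly sown seeds. After about 3 weeks under good greenhouse conditions, damage is given as visual percentage, 100% meaning plant death.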

KCHSC [5] = experiment: Pre-emergence action against KCHSC, 1280 g/ha; assay type: in vivo, Bassia scoparia; conditions: scored visually after about 3 weeks vs untreated controls (100% = plants have died)
Procedure, shortened: as §4

ALOMY = experiment: Pre-emergence action against ALOMY, 1280 g/ha; assay type: in vivo, Alopecurus myosuroides; conditions: visual scoring after about 3 weeks vs untreated controls, 100% = plants have died, 0% = like control plants
Procedure, shortened: as §4

KCHSC [6] = experiment: Post-emergence action against KCHSC, 1.28 kg/ha; assay type: in vivo, Bassia scoparia; conditions: dosage 1280 g/ha, visual rating about 3 weeks after treatment vs untreated controls (100% = plants died)
Procedure, shortened: as §2

Row | Compound | Post-emergence action against AVEFA in % (AVEFA) | Post-emergence action against STEME (STEME [1]) | Pre-emergence action against ECHGC in % (ECHGC) | Post-emergence action at 320 g/ha against ECHCG in % (ECHCG) | Post-emergence action against POLCO in % (POLCO) | Post-emergence action against HORMU in % (HORMU) | Pre-emergence action against MATIN in % (MATIN) | Pre-emergence action at 320 g/ha against STEME in % (STEME [2]) | Post-emergence action at 320 g/ha against DIGSA in % (DIGSA) | Pre-emergence action against KCHSC (KCHSC [5]) | Pre-emergence action against LOLRI in % (LOLRI) | Post-emergence action against VERPE (VERPE [3]) | Pre-emergence action against ALOMY (ALOMY) | Pre-emergence action against VERPE (VERPE [4]) | other results
1 | COC(=O)COc1nn(-c2ccc(F)cc2)c(-c2ccc(F)nc2)c1Br [VII-002] | 100% | 90% | 90% | 90% | 80% | 90% | 100% | 90% | – | – | – | – | – | – | –
2 | COC(=O)COc1nn(-c2ccccc2F)c(-c2cncnc2)c1Br [VI-004, Methyl {[4-bromo-1-(2-fluorophenyl)-5-(pyrimidin-5-yl)-1H-pyrazol-3-yl]oxy}acetate] | – | 90% | – | – | – | 90% | – | 90% | – | – | – | – | – | – | pest or weed control at 320 g/ha (AVEFA): 100%; pest or weed control at 320 g/ha (DIGSA): 90%; pest or weed control at 320 g/ha (LOLRI): 90%; pest or weed control at 320 g/ha (POLCO): 80%; pest or weed control at 1280 g/ha (VERPE [3]): 90%; pest or weed control at 320 g/ha (MATIN): 100%; pest or weed control at 1280 g/ha (VERPE [4]): 90%
3 | O=C(O)COc1nn(-c2ccccc2F)c(-c2cncc(F)c2)c1Br [VII-025] | 90% | 100% | 100% | 90% | 90% | – | 100% | – | 100% | 90% | 90% | 100% | 100% | 100% | –
4 | CCC(Oc1nn(-c2ccccc2F)c(-c2ccc(F)nc2)c1Br)C(=O)OC (stereo not shown) [VII-029] | 90% | 100% | – | 80% | 80% | 90% | 90% | 90% | – | 90% | 90% | 90% | 90% | 100% | Post-emergence action against KCHSC (KCHSC [6]): 90%
5 | COC(=O)COc1nn(-c2ccc(F)cc2)c(-c2cccnc2)c1Br [VII-028] | 80% | 100% | 80% | 80% | – | 80% | 80% | 90% | – | – | – | 90% | – | 90% | –
6 | COC(=O)C(C)Oc1nn(-c2ccccc2)c(-c2ccc(F)nc2)c1Br (stereo not shown) [VII-014] | 90% | 90% | 80% | 80% | 80% | – | – | – | 80% | 100% | 100% | 90% | 90% | 90% | –
7 | CCOC(=O)COc1nn(-c2ccccc2F)c(-c2ccnc(F)c2)c1Br [VIII-003, Ethyl {[4-bromo-1-(2-fluorophenyl)-5-(2-fluoropyridin-4-yl)-1H-pyrazol-3-yl]oxy}acetate] | – | 100% | 90% | 80% | – | – | – | 80% | – | – | – | – | – | – | pest or weed control at 320 g/ha (AVEFA): 90%; pest or weed control at 320 g/ha (DIGSA): 80%; pest or weed control at 320 g/ha (LOLRI): 90%; pest or weed control at 320 g/ha (POLCO): 80%; pest or weed control at 1280 g/ha (VERPE [3]): 90%; pest or weed control at 320 g/ha (MATIN): 90%; pest or weed control at 1280 g/ha (VERPE [4]): 90%
8 | CCOC(=O)COc1nn(-c2ccc(F)cc2F)c(-c2ccc(F)nc2)c1Cl [VII-016] | 80% | 100% | 100% | 80% | 90% | 80% | 80% | 90% | – | – | 100% | 90% | – | 90% | –
9 | COC(=O)COc1nn(-c2ccccc2F)c(-c2cncc(F)c2)c1Br [VII-035] | 90% | 100% | 90% | 90% | 90% | – | 100% | – | 100% | 90% | 90% | 100% | 100% | 100% | –
10 | CN(C)S(=O)(=O)NC(=O)COc1nn(-c2ccccc2F)c(-c2ccc(F)nc2)c1Br [Example X-005] | 90% | 90% | 90% | 80% | 80% | – | 100% | – | 90% | 90% | 100% | 100% | 100% | 100% | –
11 | O=C(O)COc1nn(-c2ccccc2F)c(-c2cncnc2)c1Br [VI-007, {[4-Bromo-1-(2-fluorophenyl)-5-(pyrimidin-5-yl)-1H-pyrazol-3-yl]oxy}acetic Acid] | – | 100% | – | 80% | – | 90% | – | 100% | – | – | – | – | 90% | – | pest or weed control at 320 g/ha (AVEFA): 100%; pest or weed control at 320 g/ha (DIGSA): 80%; pest or weed control at 320 g/ha (LOLRI): 100%; pest or weed control at 320 g/ha (POLCO): 80%; pest or weed control at 1280 g/ha (VERPE [3]): 90%; pest or weed control at 320 g/ha (MATIN): 100%; pest or weed control at 1280 g/ha (VERPE [4]): 90%
